# Read-outs that look alike come from different tables or passages of the source.
# How the values were obtained:
# HIV-1 = assay: Anti-HIV activity: inhibition of HIV-1 induced cytopathic effect in CEM cells, MTT (Method B); format: cell-based, strain HTVL-IIIB; details: Human immunodeficiency virus 1, CCRF-CEM; for inhibition at 500 µg/mL: 500 μg/mL; for inhibition at 10 µg/mL: 10 μg/mL; for inhibition at 100 µg/mL: 100 μg/mL
# Description: (§1) Inhibitory activity against HIV-1 was shown by tests involving plating of susceptible human host cells which are syncytium-sensitive with and without virus in microculture plates, adding various concentrations of the test compound, incubating the plates for 7 to 9 days (during which time infected, non-drug treated control cells are largely or totally destroyed by the virus), and then determining the remaining number of viable cells with a colorometric endpoint.
# (§2) Various illustrative compounds synthesized above were tested for inhibition of visna virus in vitro in a plaque reduction assay (Method A) or for inhibition of HIV-1 in a test which measured reduction of cyto-pathogenic effect in virus-infected syncytium-sensitive Leu-3a-positive CEM cells grown in tissue culture (Method B) as follows:
# Tissue culture plates were incubated at 37° C. in a humidified, 5% CO2 atmosphere and observed microscopically for toxicity and/or cytopathogenic effect (CPE). At 1 hour prior to infection each test article was prepared from the frozen stock, and a 20 μl volume of each dilution (prepared as a 10 X concentration) was added to the appropriate wells of both infected and uninfected cells.
# Assays were done in 96-well tissue culture plates. CEM cells were treated with polybrene at a concentration of 2 μg/ml, and an 80 μl volume of cells (1×10^4 cells) was dispensed into each well. A 100 μl volume of each test article dilution (prepared as a 2 X concentration) was added to 5 wells of cells, and the cells were incubated at 37° C. for 1 hour. A frozen culture of HIV-1, strain HTVL-IIIB, was diluted in culture medium to a concentration of 5×10^4 TCID50 per ml, and a 20 μl volume (containing 10^3 TCID50 of virus) was added to 3 of the wells for each test article concentration. […] A 20 μl volume of normal culture medium was added to the remaining wells to allow evaluation of cytotoxicity. Each plate contained 6 wells of untreated, uninfected, cell control samples and 6 wells of untreated, infected, virus control samples.
# On the 9th day post-infection, the cells in each well were resuspended and a 100 μl sample of each cell suspension was removed for use in an MTT assay. A 20 μl volume of a 5 mg/ml solution of 3-(4,5-dimethylthiazol-2-yl)-2,5-diphenyltetrazolium bromide (MTT) was added to each 100 μl cell suspension, and the cells were incubated at 37° C. in 5% CO2 for 4 hours. […] A 100 μl volume of a solution of 10% sodium dodecyl sulfate in 0.01 N hydrochloric acid was added to each sample, and the samples were incubated overnight. The absorbance at 590 nm was determined for each sample using a Molecular Devices Vmax microplate reader. This assay detects drug-induced suppression of viral CPE, as well as drug cytotoxicity, by measuring the generation of MTT-formazan by surviving cells.
# α-Glucosidase (yeast) = target: T1, α-Glucosidase (yeast) (Saccharomyces cerevisiae, UniProt P53341); assay: Alpha-glucosidase (yeast) inhibition assay, pH 7.4; format: biochemical
# T1 construct: purchased Sigma
# Description: (§3) Yeast alpha-glucosidase and almond beta-glucosidase activities were measured by a modification of the method of Evans, et al., Phytochemistry 22, 768-770 (1983). The modifications included (1) assay of activities at pH 7.4 in HEPES (N-2-hydroxyethylpiperazine-N'-2-ethanesulfonic acid) buffer, 2) measurement in 96 well microtiter plates and (3) inclusion of 10% DMSO in control and test samples.
# (§4) The release of p-nitrophenol from the substrate p-nitrophenylglycoside was measured spectrophotometrically in the presence and absence of test compound. Each assay included a known inhibitor of the enzyme as a standard. IC50 values were determined for compounds which inhibited the enzymes more than 50% at a 1 millimolar concentration.
# (§5) To 100 μl 50 mM HEPES buffer, pH 7.4, in a microtiter plate, add 20 μl test compound in DMSO (DMSO alone in control), 40 μl (0.013 units) yeast alpha-glucosidase (Sigma) in HEPES buffer and pre-incubate at room temperature for 15 minutes. Add 40 μl 1.25 mM p-nitrophenyl-alpha-D-glucopyranoside (Sigma) in HEPES buffer, as substrate, and monitor absorbance change at 405 nm in a Biotek EIA Autoreader. Absorption change was measured at 15 to 25 minutes (reaction was linear for at least 30 minutes). Each sample was tested in triplicate. IC50 values were determined from the linear portion of the log concentration vs % inhibition curve obtained from a minimum of 3 points. Deoxynojirimycin was used as standard inhibitor.
# β-Glucosidase (almond) [1] = assay: Beta-glucosidase (almond) inhibitor assay, pH 4.8; format: biochemical
# Description: as §3, §4
# To 100 μl 50 mM sodium citrate buffer, pH 4.8, in a microtiter plate, add 15 μl test compound in DMSO (DMSO alone in control), 20 μl (0.017 units) beta-glucosidase (Sigma) in citrate buffer and pre-incubate at room temperature for 15 minutes. Add 25 μl 2.50 mM p-nitrophenyl-beta-D-glucopyranoside in citrate buffer, as substrate. Incubate at room temperature 20 minutes (reaction is linear for at least 30 minutes). Add 50 μl 0.4 M NaOH. Read absorption change at 405 nm in a Biotek EIA Autoreader. Each sample was tested in triplicate. IC50 values were determined from the linear portion of the log concentration vs % inhibition curve obtained from a minimum of 3 points. Castanospermine was used as standard inhibitor.
# β-Glucosidase (almond) [2] = assay: Beta-glucosidase (almond) inhibition assay, pH 7.4; format: biochemical
# Description: as §3, §4
# as §5, with “μl (0.136” for “μl (0.013”, “units) beta-glucosidase” for “units) yeast alpha-glucosidase”, “mM p-nitrophenyl-beta-D-glucopyranoside” for “mM p-nitrophenyl-alpha-D-glucopyranoside (Sigma)”, “as substrate” for “as substrate,”, “(reaction is” for “(reaction was”, “points. Castanospermine” for “points. Deoxynojirimycin”
# β-glucosidase [3] = details: 0.1 mM; according to U.S. Pat. No. 5,025,021; cited from earlier work
# α-glucosidase [4] = details: 0.1 mM; according to U.S. Pat. No. 5,025,021; cited from earlier work
# visna virus = assay: Inhibition of visna virus growth, plaque reduction assay in sheep choroid plexus (SCP) cells (Method A); format: cell-based
# Text: Inhibitory activity against visna virus was shown by a conventional plaque reduction assay. Visna virus, a lentivirus genetically very similar to the AIDS virus, is pathogenic for sheep and goats. See Sonigo et al., Cell 42, 369-382 (1985); Haase, Nature 322, 130-136 (1986). Inhibition of visna virus replication in vitro as a useful model for HIV and its inhibition by test compounds has been described by Frank et al., Antimicrobial Agents and Chemotherapy 31 (9), 1369-1374 (1987).
# as §2
# Sheep choroid plexus (SCP) cells were obtained from American Type Culture Collection (ATCC) catalogue number CRL 1700 and were routinely passaged in vitro in Dulbecco's Modified Eagles (DME) medium supplemented with 20% fetal bovine serum (FBS). SCP cells were passaged once per week at a 1:2 or 1:3 split ratio. Visna was titrated by plaque assay in six-well plates. Virus pools were stored at -70° C.
# SCP cells were cultured in 6-well plates to confluence. Wells were washed two times with serum free Minimal Essential Medium (MEM) to remove FBS. 0.2 ml of virus was added per well in MEM supplemented with 4 mM glutamine and gentamycin. After 1 hour adsorption, the virus was aspirated from each well. The appropriate concentration of each compound in 5 ml of Medium 199 (M-199) supplemented with 2% lamb serum, 4 mM glutamine, 0.5% agarose and gentamycin was added to each well. Cultures were incubated at 37° C. in a humidified 5% CO2 incubator for 3-4 weeks. To terminate the test, cultures were fixed in 10% formalin, the agar removed, the monolayers stained with 1% crystal violet and plaques counted. Each compound concentration was run in triplicate. […] 0 is no toxicity observed while 4 is total lysing of the cell monolayer. […]
# Control wells without virus were completed to determine the toxicity of compounds.
# [5] = Cytotoxicity in CEM cells (TD50) in the standard CEM cell assay for HIV inhibition; format: cell-based; details: human
# Description: as §1
# This is illustrated by a side-by-side comparison between the 2-chloro-N-butyl-DNJ of the present invention and the corresponding 2-fluoro-N-butyl-DNJ disclosed in U.S Pat. No. 5,025,021. […] Moreover, the foregoing illustrative 2-chloro derivative also is a better enzyme inhibitor than the corresponding 2-fluoro derivative. The 2-chloro derivative inhibits α-glucosidase 46% and β-glucosidase 32% at 0.1 mM, whereas the corresponding 2-fluoro derivative inhibits these enzymes at only 8% and 4% at the same concentration according to U.S. Pat. No. 5,025,021.
# Assays were done in 96-well tissue culture plates. […]
# On the 9th day post-infection, the cells in each well were resuspended and a 100 μl sample of each cell suspension was removed for use in an MTT assay. […] The absorbance at 590 nm was determined for each sample using a Molecular Devices Vmax microplate reader. […]
# α-glucosidase [6] = assay: α-glucosidase inhibition, conventional in vitro assay (p-nitrophenol release); format: biochemical; details: 0.1 mM
# Description: (§6) Inhibitory activity against α- and β-glucosidase enzymes was determined by conventional in vitro assays for these enzymes as described in U.S. Pat. No. 4,973,602. These assays involve spectrophotometric measurement of the release of p-nitrophenol from the substrate p-nitrophenyl-glycoside in the presence and absence of the test compound and comparison against a control standard that contains a known inhibitor of the enzyme.
# β-glucosidase [7] = assay: β-glucosidase inhibition, conventional in vitro assay (p-nitrophenol release); format: biochemical; details: 0.1 mM
# Description: as §6
# [8] = standard CEM cell assay, side-by-side comparison
# [9] = CEM cells, Table 2, read-out: Anti-HIV activity, inhibition of virus induced cytopathic effect, EC50
# [10] = pH 7.4, read-out: Percent inhibition of α-glucosidase (yeast)
# T1 sequence (P53341 whole entry): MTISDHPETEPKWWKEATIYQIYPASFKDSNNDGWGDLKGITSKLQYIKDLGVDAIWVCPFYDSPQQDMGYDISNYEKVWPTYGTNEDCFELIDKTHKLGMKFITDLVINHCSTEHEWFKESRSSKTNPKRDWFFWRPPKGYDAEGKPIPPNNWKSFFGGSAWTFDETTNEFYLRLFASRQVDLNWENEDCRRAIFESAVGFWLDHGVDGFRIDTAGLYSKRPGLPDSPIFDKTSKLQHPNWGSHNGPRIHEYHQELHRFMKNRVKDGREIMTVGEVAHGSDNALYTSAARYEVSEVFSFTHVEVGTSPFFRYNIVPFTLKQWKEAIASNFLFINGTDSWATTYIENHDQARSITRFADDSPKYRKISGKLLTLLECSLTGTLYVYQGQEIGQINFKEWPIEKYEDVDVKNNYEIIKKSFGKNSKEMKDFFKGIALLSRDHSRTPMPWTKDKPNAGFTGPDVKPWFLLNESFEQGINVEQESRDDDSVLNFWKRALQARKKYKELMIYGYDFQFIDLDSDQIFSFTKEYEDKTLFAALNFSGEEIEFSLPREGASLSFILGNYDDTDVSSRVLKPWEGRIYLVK
smiles,measurement,setting,value
"CCCCN1[C@H](CO)[C@@H](O)[C@H](O)[C@H]1CN=[N+]=[N-] [Example 47, 1-Azido-2,5-(butylimino)-1,2,5-trideoxy-D-mannitol]",inhibition at 500 µg/mL,"HIV-1; CEM cells, Table 2, read-out: Anti-HIV activity, % inhibition of virus induced cytopathic effect",36%
same,inhibition at 100 µM,"α-Glucosidase (yeast); 100 μM, pH 7.4, read-out: Percent inhibition of α-glucosidase (yeast)",22.7%
same,inhibition at 1000 µM,"α-Glucosidase (yeast); 1000 μM, pH 7.4, read-out: Percent inhibition of α-glucosidase (yeast)",24.8%
same,Percent inhibition of β-glucosidase (almond),β-Glucosidase (almond) [1]; 100 μM,11.2%
same,Percent inhibition of β-glucosidase (almond),β-Glucosidase (almond) [1]; 1000 μM,32.6%
same,Percent inhibition of β-glucosidase (almond),β-Glucosidase (almond) [2]; 100 μM,-4.1%
same,Percent inhibition of β-glucosidase (almond),β-Glucosidase (almond) [2]; 1000 μM,6.7%
"CCCCN1C[C@H](F)[C@@H](O)[C@H](O)[C@H]1CO [2-fluoro-N-butyl-DNJ, reference compound]",% inhibition of β-glucosidase,β-glucosidase [3],4%
same,inhibition at 10 µg/mL,HIV-1; [8],0%
same,inhibition at 100 µg/mL,HIV-1; [8],0%
same,inhibition at 500 µg/mL,"HIV-1; standard CEM cell assay, side-by-side comparison, read-out: % inhibition of HIV",3%
same,% inhibition of α-glucosidase,α-glucosidase [4],8%
"CCCCN1C[C@H](Cl)[C@@H](O)[C@H](O)[C@H]1CO [Example 27, 1,5-(Butylimino)-2-chloro-1,2,5-trideoxy-D-glucitol]",inhibition at 10 µM,"visna virus; Visna-maedi virus, 0.01 mM",39%
same,inhibition at 100 µM,"visna virus; Visna-maedi virus, 0.1 mM",38%
same,inhibition at 1000 µM,"visna virus; Visna-maedi virus, 1.0 mM",99%
same,inhibition at 10 µg/mL,HIV-1; [8],29.3%
same,inhibition at 100 µg/mL,HIV-1; [8],62.5%
same,EC50,HIV-1; [9],43 µg/mL
same,EC50,"HIV-1; standard CEM cell assay, side-by-side comparison, read-out: EC50, HIV inhibition, calculated by linear regression",43 µg/mL
same,CC50,[5],187 µg/mL
same,% inhibition of α-glucosidase,α-glucosidase [6],46%
same,% inhibition of β-glucosidase,β-glucosidase [7],32%
"CCCCCCN1C[C@H](Cl)[C@@H](O)[C@H](O)[C@H]1CO [Example 28, 2-Chloro-1,2,5-trideoxy-1,5(hexylimino)-D-glucitol]",% inhibition of visna virus growth,visna virus; 0.001 mM,6%
same,% inhibition of visna virus growth,visna virus; 0.01 mM,61%
same,% inhibition of visna virus growth,visna virus; 0.1 mM,100%
same,% inhibition of visna virus growth,visna virus; 1.0 mM,100%
same,EC50,HIV-1; [9],11 µg/mL
same,inhibition at 1 µM,α-Glucosidase (yeast); [10],4%
same,inhibition at 10 µM,α-Glucosidase (yeast); [10],37.6%
same,inhibition at 100 µM,α-Glucosidase (yeast); [10],82.9%
same,inhibition at 1000 µM,α-Glucosidase (yeast); [10],95.5%
same,Percent inhibition of β-glucosidase (almond),β-Glucosidase (almond) [1]; 100 μM,43.7%
same,Percent inhibition of β-glucosidase (almond),β-Glucosidase (almond) [1]; 1000 μM,84%
same,Percent inhibition of β-glucosidase (almond),β-Glucosidase (almond) [2]; 100 μM,62.9%
same,Percent inhibition of β-glucosidase (almond),β-Glucosidase (almond) [2]; 1000 μM,90%

# Source: patent publication US5612480A, “2-chloro and 2-bromo derivatives of 1,5-iminosugars” (priority 1995, dated 1997)
